Results published in patent publication US10342786B2, “P38 kinase inhibitors reduce DUX4 and downstream gene expression for the treatment of FSHD” (Fulcrum Therapeutics, Inc., priority 2017, dated 2019).

What was measured:
[1] = tested on: ZSCAN4, TRIM43, LEUTX, KHDC1L; assay: DUX4-regulated downstream genes by real time PCR in FSHD myotubes; assay type: cell-based, human; conditions: 1 μM ASO; FSHD myotubes vs DMSO
Procedure: For qPCR, dilute 1:10 and use 2 μL for a 10 μL 1-step RT-qPCR reaction. For detection of GAPDH, RPLPO, TBP, MYOG, FRG1, MYH3, ACTN2, etc.). Per 10 μL reaction: RNA (1:10 dilution lysate) 2 μL, Fast Advanced Taqman Master Mix (2×) 5 μL, RT enzyme mix (40×) 0.25 μL, Taqman probe set (20×) 0.5 μL, H2O 2.25 μL. The following reaction protocol was run on the QuantStudio 7: 48° C. for 15 min, 50° C. for 2 min, 95° C. for 30 sec, 40×, 95° C. for 5 sec, 60° C. for 30 sec, then plates were read as specified by the manufacturer (Thermo). For 1-step RT-Preamplification used for detection of DUX4 downstream genes, i.e. MBD3L2, ZSCAN4, LEUTX, TRIM43, KHDC1L. POL2RA-VIC was used as Endogenous control). Per 10 μL reaction: RNA (1:10 dilution lysate) 2.25 μL, Taqman Pre-Amp Master Mix (2×) 5 μL, RT enzyme mix (40×) 0.25 μL, Taqman probe set (0.2×)*2.5 μL, * Pooling the TaqMan Assays: equal volumes of each 20× TaqMan® Gene Expression Assay, up to 100 assays were combined. For example, to pool 50 TaqMan assays, 10 μL of each assay were combined in a microcentrifuge tube. The pooled TaqMan assays were diluted using 1×TE buffer so that each assay is at a final concentration of 0.2×. For the above example, add 500 μL of 1×TE buffer to the pooled TaqMan assays for a total final volume of 1 mL. The QuantStudio7 protocol was used 48° C. 15 min, 95° C. 10 min, 10 cycles: 95° C. 15 sec, 60° C. 4 min, 4° C. infinite. Samples were then diluted to 50 μL and continue with the qPCR step. Per 10 μL reaction: Preamp dilution 2 μL, Fast Advanced Taqman Master Mix (2×) 5 μL, Taqman probe set (20×) 0.5 μL, H2O 2.5 μL. When multiplexing the volume was adjusted to 10 μL total). The following program was run on the QuantStudio7: 50° C. for 2 min, 95° C. for 30 sec, 40×, 95° C. for 5 sec, 60° C. for 30 sec, plates were read as per the manufacturers specifications (Thermo).
Wild type myotubes were treated with DMSO control vehicle, and mature patient-derived FSHD myotubes that express DUX4 protein were treated with DMSO vehicle control or 1 μM of a DUX4 sequence-directed antisense oligonucleotide (ASO; FTX-2) purchased from Exiqon. After treatment, the myotubes were lysed in 19.5 μL of Roche Real Time Ready Lysis Buffer, 0.25 μL of DNAsel (Ambion, AM2222), 0.25 μL of Protector RNase Inhibitor (Roche, 3335402001), and the RNA was collected in an RNeasy Micro Kit Master Mix. Expression levels of DUX4-regulated downstream genes (ZSCAN4, TRIM43, MBD3L2, LEUTX, and KHDC1L) was determined by real time PCR (ThermoFisher Scientific, 4484262), ZSCAN4 Taqman Assay (ThermoFisher Scientific, Hs00537549 ml, FAM-MGB), MYOG Taqman Assay (ThermoFisher Scientific, Hs01072232_ml, JUN-QSY), RPLPO Taqman Assay (ThermoFisher Scientific, Hs99999902_ml), and/or LEUTX Taqman Assay (ThermoFisher Scientific, Hs00418470_ml). […]

FSHD myotubes = assay: Myotube formation / fusion (MHC and DAPI staining); assay type: cell-based, human; conditions: 10, 100, and 1000 nM; FSHD myotubes
Procedure: On day 0, change to differentiation media. Remove plates from the incubator and aspirate the growth medium, Wash once with PBS, 100 μL for 96-wells and 1 mL for a 6-well plate, Add 100 μL or 2 mL of differentiation medium per well, 96- or 6-well respectively. Add antisense oligonucleotides or drug at the desire concentration and put back in the incubator. Fusion should start within day 1-2. Incubate for 3-4 days.
Briefly, cells were fixed in 4% paraformaldehyde and […] for 10 min at room temperature. Cells were permeabilized with PBST (1×PBS solution with 0.1% Triton X-100) before blocking with 10% Normal Donkey Serum or 3% BSA (NDS) in PBST. […] DUX4 was detected by immunocytochemistry using the E5-5 antibody in differentiated FSHD myotubes. Activated Caspase-3 was detected cell signaling antibody that we're using for ICC, Asp175 (https://www.cellsignal.com/products/primary-antibodies/cleaved-caspase-3-asp175-antibody/9661).
Immortalized FHSD myotubes were differentiated and treated with DMSO vehicle control or FTX-1821 at concentrations of 1 μM, 0.33 μM, 0.11 μM or 0.037 μM. […] The nuclei in myotubes were quantified according to […] staining (FIG. 8B).

With “FTX-2: DUX4 sequence-directed antisense oligonucleotide purchased from Exiqon, CAGCGTCGGAAGGTGG (SEQ ID NO: 1) (listed as DNA, chemistry not given here)” the KHDC1L expression [1] was “reduced amounts”, the LEUTX expression [1] was “reduced amounts” and the TRIM43 expression [1] was “reduced amounts”. For the same molecule, the ZSCAN4 expression [1] was “reduced amounts”.
For `Cn1c(=O)c(Oc2ccc(F)cc2F)cc2cnc(NC(CCO)CCO)nc21` [Pamapimod, 6-(2,4-difluorophenoxy)-2-((1,5-dihydroxypentan-3-yl)amino)-8-methylpyrido[2,3-d]pyrimidin-7(8H)-one], the differentiation into myotubes (FSHD myotubes) was “without impacting”.
